Results: patent US20260232767A1, “INTERLEUKIN-23 RECEPTOR ANTAGONIST PEPTIDES FOR USE IN THE TREATMENT OF PSORIASIS” (Janssen Pharmaceutica NV, priority 2023, published 2026)

System: subjects with moderate-to-severe plaque psoriasis
Assay: Safety, adverse events, Example 2 through Week 56
Type: in vivo, human
Details: Placebo → 100 mg QD
Source text: The LTE safety analysis was based on randomized participants in Example who entered the present long-term extension study and received at least one dose of study intervention (including a partial dose) during the study period.

`CC(=O)NCCCC[C@@H]1NC(=O)[C@H](Cc2c[nH]c3c(C)cccc23)NC(=O)[C@H]([C@@H](C)O)NC(=O)[C@H](CC(N)=O)NC(=O)[C@@H](NC(C)=O)C(C)(C)SSC(C)(C)[C@@H](C(=O)N[C@@H](Cc2ccc(OCCN)cc2)C(=O)N[C@@H](Cc2ccc3ccccc3c2)C(=O)NC2(C(=O)N[C@@H](CCC(=O)O)C(=O)N[C@@H](CC(N)=O)C(=O)N[C@@H](Cc3cccnc3)C(=O)N(C)CC(N)=O)CCOCC2)NC1=O` [IL-23 receptor antagonist peptide, Ac-[Pen]*-N-T-[W(7-Me)]-[Lys(Ac)]-[Pen]*-Phe[4-(2-aminoethoxy)]-[2-Nal]-[THP]-E-N-[3-Pal]-Sarc-NH2 (*[Pen]-[Pen]* formdisulfidebond)] was tested. Which “Subjects with serious adverse event: Ventricular dysfunction” value (LTE Safety analysis set) did it give?
The value was 0.

And the “Subjects with 1 or more treatment-emergent adverse events leading to discontinuation of study agent” value (Week 16-56)?
Its value is 0.

What about the “Subjects with AE leading to discontinuation: Alanine aminotransferase increased” value (Week 16-56) of the same compound?
Its value is 0.

And the “Subjects with AE leading to discontinuation: Aspartate aminotransferase increased” value (Week 16-56)?
The value was 0.

And the “Subjects with AE leading to discontinuation: Asthenia” value (Week 16-56)?
Its value is 0.

What about the “Subjects with AE leading to discontinuation: Chills” value (Week 16-56) of the same compound?
Its value is 0.

And the “Subjects with AE leading to discontinuation: Ear and labyrinth disorders” value (Week 16-56)?
The value was 0.

And the “Subjects with AE leading to discontinuation: Gamma-glutamyltransferase increased” value (Week 16-56)?
The value was 0.

And the “Subjects with AE leading to discontinuation: Gastrointestinal disorders” value (Week 16-56)?
Its value is 0.

And the “Subjects with AE leading to discontinuation: General disorders and administration site conditions” value (Week 16-56)?
Its value is 0.

What about the “Subjects with AE leading to discontinuation: Headache” value (Week 16-56) of the same compound?
Its value is 0.

What about the “Subjects with AE leading to discontinuation: Insomnia” value (Week 16-56) of the same compound?
Its value is 0.

What about the “Subjects with AE leading to discontinuation: Investigations” value (Week 16-56) of the same compound?
Its value is 0.

And the “Subjects with AE leading to discontinuation: Nervous system disorders” value (Week 16-56)?
The value was 0.

And the “Subjects with AE leading to discontinuation: Proctalgia” value (Week 16-56)?
The value was 0.

What about the “Subjects with AE leading to discontinuation: Psoriasis” value (Week 16-56) of the same compound?
The value was 0.

And the “Subjects with AE leading to discontinuation: Psychiatric disorders” value (Week 16-56)?
The value was 0.

And the “Subjects with AE leading to discontinuation: Skin and subcutaneous tissue disorders” value (Week 16-56)?
Its value is 0.

And the “Subjects with AE leading to discontinuation: Vertigo” value (Week 16-56)?
Its value is 0.

And the “Subjects with AE leading to discontinuation: Vomiting” value (Week 16-56)?
Its value is 0.

And the “Subjects with treatment-emergent AE: Headache” value (Week 16-56)?
Its value is 0.

What about the “Subjects with treatment-emergent AE: Meniscus injury” value (Week 16-56) of the same compound?
The value was 0.

What about the “Subjects with treatment-emergent AE: Nasopharyngitis” value (Week 16-56) of the same compound?
Its value is 9.

What about the “Subjects with treatment-emergent AE: Sinusitis” value (Week 16-56) of the same compound?
Its value is 0.

What about the “Subjects with treatment-emergent AE: Vomiting” value (Week 16-56) of the same compound?
Its value is 0.

And the “Subjects with treatment-emergent serious AE: Cardiac disorders” value (Week 16-56)?
The value was 0.

What about the “Subjects with treatment-emergent serious AE: Coronary artery disease” value (Week 16-56) of the same compound?
Its value is 0.

What about the “Subjects with treatment-emergent serious AE: Diverticulitis” value (Week 16-56) of the same compound?
Its value is 0.

What about the “Subjects with treatment-emergent serious AE: Foot deformity” value (Week 16-56) of the same compound?
Its value is 0.

What about the “Subjects with treatment-emergent serious AE: General disorders and administration site conditions” value (Week 16-56) of the same compound?
Its value is 0.

What about the “Subjects with treatment-emergent serious AE: Infections and infestations” value (Week 16-56) of the same compound?
Its value is 0.

And the “Subjects with treatment-emergent serious AE: Injury, poisoning and procedural complications” value (Week 16-56)?
Its value is 0.

And the “Subjects with treatment-emergent serious AE: Intervertebral disc protrusion” value (Week 16-56)?
The value was 0.

What about the “Subjects with treatment-emergent serious AE: Ligament injury” value (Week 16-56) of the same compound?
Its value is 0.

What about the “Subjects with treatment-emergent serious AE: Musculoskeletal and connective tissue disorders” value (Week 16-56) of the same compound?
Its value is 0.

And the “Subjects with treatment-emergent serious AE: Neoplasms benign, malignant and unspecified (incl cysts and polyps)” value (Week 16-56)?
The value was 0.

What about the “Subjects with treatment-emergent serious AE: Non-cardiac chest pain” value (Week 16-56) of the same compound?
The value was 0.

And the “Subjects with treatment-emergent serious AE: Respiratory, thoracic and mediastinal disorders” value (Week 16-56)?
The value was 0.

And the “Subjects with treatment-emergent serious AE: Tonsillar hypertrophy” value (Week 16-56)?
Its value is 0.

And the “Subjects with treatment-emergent serious AE: Uterine leiomyoma” value (Week 16-56)?
Its value is 0.

What about the “Subjects with treatment-emergent serious AE: Ventricular dysfunction” value (Week 16-56) of the same compound?
The value was 0.

What about the “Acrochordon: number of subjects” value (through Week 56) of the same compound?
The value was 0.

What about the “Actinic keratosis: number of subjects” value (through Week 56) of the same compound?
The value was 0.

And the “Alopecia: number of subjects” value (through Week 56)?
The value was 0.

And the “Asthenia: number of subjects” value (through Week 56)?
The value was 0.

What about the “Asthma: number of subjects” value (through Week 56) of the same compound?
Its value is 0.

And the “Atrioventricular block first degree: number of subjects” value (through Week 56)?
Its value is 0.

What about the “Basal cell carcinoma: number of subjects” value (through Week 56) of the same compound?
Its value is 0.

What about the “Blood and lymphatic system disorders: number of subjects” value (through Week 56) of the same compound?
The value was 0.

What about the “Bronchitis chronic: number of subjects” value (through Week 56) of the same compound?
Its value is 0.

What about the “Bundle branch block right: number of subjects” value (through Week 56) of the same compound?
The value was 0.

What about the “Cardiac disorders: number of subjects” value (through Week 56) of the same compound?
Its value is 0.

And the “Chills: number of subjects” value (through Week 56)?
The value was 0.

And the “Cholelithiasis: number of subjects” value (through Week 56)?
The value was 0.

And the “Chronic obstructive pulmonary disease: number of subjects” value (through Week 56)?
The value was 0.

And the “Coronary artery disease: number of subjects” value (through Week 56)?
Its value is 0.

What about the “Cough: number of subjects” value (through Week 56) of the same compound?
Its value is 0.

What about the “Decreased appetite: number of subjects” value (through Week 56) of the same compound?
The value was 0.

And the “Depression: number of subjects” value (through Week 56)?
Its value is 0.

What about the “Dermal cyst: number of subjects” value (through Week 56) of the same compound?
Its value is 0.

What about the “Dermatitis acneiform: % of subjects” value (through Week 56) of the same compound?
The value was “(2.9%)”.

And the “Dermatitis acneiform: number of subjects” value (through Week 56)?
The value was 1.

And the “Dermatitis contact: number of subjects” value (through Week 56)?
Its value is 0.

What about the “Diabetes mellitus: number of subjects” value (through Week 56) of the same compound?
Its value is 0.

What about the “Diffuse alopecia: number of subjects” value (through Week 56) of the same compound?
Its value is 0.

What about the “Dysuria: % of subjects” value (through Week 56) of the same compound?
The value was “(2.9%)”.

And the “Dysuria: number of subjects” value (through Week 56)?
Its value is 1.

What about the “Ear and labyrinth disorders: number of subjects” value (through Week 56) of the same compound?
The value was 0.

What about the “Endocrine disorders: number of subjects” value (through Week 56) of the same compound?
Its value is 0.

And the “Eye disorders: % of subjects” value (through Week 56)?
The value was “(5.7%)”.

What about the “Eye disorders: number of subjects” value (through Week 56) of the same compound?
The value was 2.

What about the “Eyelid skin dryness: number of subjects” value (through Week 56) of the same compound?
The value was 0.

What about the “Fatigue: number of subjects” value (through Week 56) of the same compound?
Its value is 0.

What about the “General disorders and administration site conditions: number of subjects” value (through Week 56) of the same compound?
Its value is 0.

And the “Goiter: number of subjects” value (through Week 56)?
The value was 0.

And the “Haemochromatosis: % of subjects” value (through Week 56)?
The value was “(2.9%)”.

And the “Haemochromatosis: number of subjects” value (through Week 56)?
Its value is 1.

What about the “Hand dermatitis: % of subjects” value (through Week 56) of the same compound?
Its value is “(2.9%)”.

What about the “Hand dermatitis: number of subjects” value (through Week 56) of the same compound?
Its value is 1.

And the “Hematuria: % of subjects” value (through Week 56)?
The value was “(2.9%)”.

What about the “Hematuria: number of subjects” value (through Week 56) of the same compound?
Its value is 1.

What about the “Hepatobiliary disorders: % of subjects” value (through Week 56) of the same compound?
The value was “(2.9%)”.

What about the “Hepatobiliary disorders: number of subjects” value (through Week 56) of the same compound?
The value was 1.

What about the “Hypercholesterolemia: number of subjects” value (through Week 56) of the same compound?
Its value is 0.

And the “Hyperglycemia: number of subjects” value (through Week 56)?
The value was 0.

And the “Hyperlipidemia: number of subjects” value (through Week 56)?
The value was 0.

What about the “Hypertension: % of subjects” value (through Week 56) of the same compound?
The value was “(2.9%)”.

And the “Hypertension: number of subjects” value (through Week 56)?
The value was 1.

And the “Hypertransaminasemia: % of subjects” value (through Week 56)?
The value was “(2.9%)”.

And the “Hypertransaminasemia: number of subjects” value (through Week 56)?
The value was 1.

What about the “Hypertriglyceridemia: number of subjects” value (through Week 56) of the same compound?
Its value is 0.

What about the “Hypoacusis: number of subjects” value (through Week 56) of the same compound?
The value was 0.

And the “Immune system disorders: number of subjects” value (through Week 56)?
Its value is 0.

And the “Influenza like illness: number of subjects” value (through Week 56)?
The value was 0.

And the “Insomnia: number of subjects” value (through Week 56)?
Its value is 0.

And the “Intertrigo: number of subjects” value (through Week 56)?
Its value is 0.

And the “Ketonuria: number of subjects” value (through Week 56)?
The value was 0.

What about the “Leukocyturia: number of subjects” value (through Week 56) of the same compound?
Its value is 0.

And the “Leukopenia: number of subjects” value (through Week 56)?
Its value is 0.

And the “Libido decreased: number of subjects” value (through Week 56)?
The value was 0.

And the “Liver disorder: number of subjects” value (through Week 56)?
Its value is 0.

What about the “Lymphopenia: number of subjects” value (through Week 56) of the same compound?
Its value is 0.

What about the “Menopause: number of subjects” value (through Week 56) of the same compound?
The value was 0.

And the “Metabolism and nutrition disorders: % of subjects” value (through Week 56)?
Its value is “(2.9%)”.

And the “Metabolism and nutrition disorders: number of subjects” value (through Week 56)?
Its value is 1.

And the “Neoplasms benign, malignant and unspecified (incl cysts and polyps): number of subjects” value (through Week 56)?
Its value is 0.

And the “Nephrolithiasis: number of subjects” value (through Week 56)?
Its value is 0.

And the “Neutropenia: number of subjects” value (through Week 56)?
Its value is 0.

And the “Night sweats: number of subjects” value (through Week 56)?
The value was 0.

What about the “Non-cardiac chest pain: number of subjects” value (through Week 56) of the same compound?
The value was 0.

What about the “Ocular cyst: % of subjects” value (through Week 56) of the same compound?
The value was “(2.9%)”.

What about the “Ocular cyst: number of subjects” value (through Week 56) of the same compound?
The value was 1.

What about the “Oedema peripheral: number of subjects” value (through Week 56) of the same compound?
The value was 0.

What about the “Oropharyngeal pain: % of subjects” value (through Week 56) of the same compound?
The value was “(2.9%)”.

And the “Oropharyngeal pain: number of subjects” value (through Week 56)?
The value was 1.

And the “Procedural pain: number of subjects” value (through Week 56)?
Its value is 0.

And the “Productive cough: number of subjects” value (through Week 56)?
Its value is 0.

What about the “Proteinuria: number of subjects” value (through Week 56) of the same compound?
Its value is 0.

What about the “Pruritus: number of subjects” value (through Week 56) of the same compound?
Its value is 0.

And the “Psoriasis: number of subjects” value (through Week 56)?
Its value is 0.

What about the “Psychiatric disorders: number of subjects” value (through Week 56) of the same compound?
The value was 0.
